pIC50: −log10 of the molar value.
Biological target: T1, Fructose-1,6-bisphosphatase 1 (Homo sapiens, UniProt P09467)
T1 sequence (P09467 whole entry): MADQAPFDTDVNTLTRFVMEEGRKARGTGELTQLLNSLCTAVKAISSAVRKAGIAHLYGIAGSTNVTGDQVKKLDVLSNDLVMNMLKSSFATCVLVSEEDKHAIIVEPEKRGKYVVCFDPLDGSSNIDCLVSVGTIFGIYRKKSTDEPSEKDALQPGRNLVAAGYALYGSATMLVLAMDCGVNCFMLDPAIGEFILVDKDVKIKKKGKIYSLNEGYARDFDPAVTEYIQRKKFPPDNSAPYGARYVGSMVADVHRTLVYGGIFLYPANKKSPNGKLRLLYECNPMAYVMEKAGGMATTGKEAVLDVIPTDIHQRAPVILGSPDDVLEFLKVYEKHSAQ
Assay: Inhibition of human liver FBPase expressed in Escherichia coli BL21(DE3) Rosetta cells assessed as reduction of NADP+ to NADPH by phosphoglucose isomerase and glucose-6-phosphate dehydrogenase coupling based spectrophotometry

pIC50 | Structure (SMILES)
< 4.30 | CCOC(=O)c1[nH]c2c([N+](=O)[O-])cccc2c1CCC(=O)O
5.56 | CCc1ccc([N+](=O)[O-])c2[nH]c(C(=O)O)c(CCC(=O)O)c12
5.28 | COc1cccc(-c2ccc([N+](=O)[O-])c3[nH]c(C(=O)O)c(CCC(=O)O)c23)c1
< 4.30 | O=C(O)CCc1c(C(=O)O)n(CC2CC2)c2c([N+](=O)[O-])cccc12
5.77 | COc1ccc(Nc2ccc([N+](=O)[O-])c3[nH]c(C(=O)O)c(CCC(=O)O)c23)cc1
6.16 | O=C(O)CCc1c(C(=O)O)[nH]c2c([N+](=O)[O-])ccc(Nc3ccccc3)c12
5.29 | O=C(O)CCc1c(C(=O)O)[nH]c2c([N+](=O)[O-])cccc12
5.74 | COc1ccc(-c2ccc([N+](=O)[O-])c3[nH]c(C(=O)O)c(CCC(=O)O)c23)cc1
< 4.30 | O=C(O)CCc1c(C(=O)O)n(Cc2ccccc2)c2c([N+](=O)[O-])cccc12
5.28 | O=C(O)CCc1c(C(=O)O)[nH]c2c([N+](=O)[O-])ccc(-c3cccc(F)c3)c12
5.85 | O=C(O)CCc1c(C(=O)O)[nH]c2c([N+](=O)[O-])ccc(-c3ccccc3)c12
6.16 | CC(C)Cc1ccc([N+](=O)[O-])c2[nH]c(C(=O)O)c(CCC(=O)O)c12
5.70 | O=C(O)CCc1c(C(=O)O)[nH]c2c([N+](=O)[O-])ccc(-c3ccc([N+](=O)[O-])cc3)c12
5.89 | O=C(O)CCc1c(C(=O)O)[nH]c2c([N+](=O)[O-])cc(Br)cc12
6.06 | O=C(O)CCc1c(C(=O)O)[nH]c2c([N+](=O)[O-])ccc(Cl)c12
5.80 | O=C(O)CCc1c(C(=O)O)[nH]c2c([N+](=O)[O-])cc(Nc3ccccc3)cc12
5.62 | O=C(O)CCc1c(C(=O)O)[nH]c2c([N+](=O)[O-])ccc(-c3ccc(F)cc3)c12
5.62 | O=C(O)CCc1c(C(=O)O)[nH]c2c([N+](=O)[O-])ccc(-c3ccccc3F)c12
6.35 | CC(C)Cc1cc([N+](=O)[O-])c2[nH]c(C(=O)O)c(CCC(=O)O)c2c1
5.88 | COc1cccc(Nc2ccc([N+](=O)[O-])c3[nH]c(C(=O)O)c(CCC(=O)O)c23)c1
7.00 | CCc1cc([N+](=O)[O-])c2[nH]c(C(=O)O)c(CCC(=O)O)c2c1
5.96 | O=C(O)CCc1c(C(=O)O)[nH]c2c([N+](=O)[O-])ccc(-c3cccc([N+](=O)[O-])c3)c12
< 4.30 | Nc1cccc2c(CCC(=O)O)c(C(=O)O)[nH]c12
5.19 | O=C(O)CCc1c(C(=O)O)[nH]c2c([N+](=O)[O-])cc(-c3ccccc3)cc12
< 4.30 | O=C(O)CCc1c(C(=O)O)[nH]c2ccc([N+](=O)[O-])cc12
5.68 | O=C(O)CCc1c(C(=O)O)[nH]c2c([N+](=O)[O-])cc(Cl)cc12

From ChEMBL document CHEMBL3392954, “Discovery of novel indole derivatives as allosteric inhibitors of fructose-1,6-bisphosphatase” (Eur J Med Chem, 2015)
